Reference: ChEMBL document CHEMBL4507283, “Data for DCP probe BI-1935” (2021)

Tests used:
[1] = target: Death-associated protein kinase 2 (Homo sapiens) (UniProt Q9UIK4); settings: Compound concentration 1000.0 nM
[2] = test system: Tyrosine-protein kinase ABL1 (Homo sapiens), P00519 [Q252H]; settings: Compound concentration 1000.0 nM
[3] = target: Tyrosine-protein kinase Mer (Homo sapiens) (UniProt Q12866); settings: Compound concentration 1000.0 nM
[4] = target: cGMP-dependent protein kinase 1 (Homo sapiens) (UniProt Q13976); settings: Compound concentration 1000.0 nM
[5] = target: Receptor tyrosine-protein kinase erbB-4 (Homo sapiens) (UniProt Q15303); settings: Compound concentration 1000.0 nM
[6] = target: Aurora kinase B (Homo sapiens) (UniProt Q96GD4); settings: Compound concentration 1000.0 nM
[7] = target: Casein kinase II subunit alpha' (Homo sapiens) (UniProt P19784); settings: Compound concentration 1000.0 nM
[8] = target: Tyrosine-protein kinase ABL2 (Homo sapiens) (UniProt P42684); settings: Compound concentration 1000.0 nM
[9] = target: Histamine H2 receptor (Homo sapiens) (UniProt P25021); assay: H2/H Eurofins-Panlabs selectivity data (BI); settings: Compound concentration 10.0 uM
[10] = target: T1, 5-hydroxytryptamine receptor 3A (Homo sapiens) (UniProt P46098); settings: Compound concentration 10.0 uM
T1 sequence (whole entry): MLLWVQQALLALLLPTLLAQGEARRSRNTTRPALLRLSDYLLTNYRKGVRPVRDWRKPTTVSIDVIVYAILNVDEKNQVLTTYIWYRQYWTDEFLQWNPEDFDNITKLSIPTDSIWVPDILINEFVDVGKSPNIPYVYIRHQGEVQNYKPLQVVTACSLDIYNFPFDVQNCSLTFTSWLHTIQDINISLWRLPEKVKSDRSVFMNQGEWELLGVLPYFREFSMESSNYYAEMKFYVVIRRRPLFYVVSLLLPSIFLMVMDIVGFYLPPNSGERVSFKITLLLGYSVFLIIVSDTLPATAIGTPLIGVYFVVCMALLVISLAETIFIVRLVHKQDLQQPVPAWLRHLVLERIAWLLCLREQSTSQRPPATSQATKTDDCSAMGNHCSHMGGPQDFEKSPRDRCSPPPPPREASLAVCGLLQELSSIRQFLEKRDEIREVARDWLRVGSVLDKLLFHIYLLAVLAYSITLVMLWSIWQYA

[11] = target: Non-receptor tyrosine-protein kinase TYK2 (Homo sapiens) (UniProt P29597); settings: Compound concentration 1000.0 nM
Non-receptor tyrosine-protein kinase TYK2 (Homo sapiens), sequence (P29597 whole entry): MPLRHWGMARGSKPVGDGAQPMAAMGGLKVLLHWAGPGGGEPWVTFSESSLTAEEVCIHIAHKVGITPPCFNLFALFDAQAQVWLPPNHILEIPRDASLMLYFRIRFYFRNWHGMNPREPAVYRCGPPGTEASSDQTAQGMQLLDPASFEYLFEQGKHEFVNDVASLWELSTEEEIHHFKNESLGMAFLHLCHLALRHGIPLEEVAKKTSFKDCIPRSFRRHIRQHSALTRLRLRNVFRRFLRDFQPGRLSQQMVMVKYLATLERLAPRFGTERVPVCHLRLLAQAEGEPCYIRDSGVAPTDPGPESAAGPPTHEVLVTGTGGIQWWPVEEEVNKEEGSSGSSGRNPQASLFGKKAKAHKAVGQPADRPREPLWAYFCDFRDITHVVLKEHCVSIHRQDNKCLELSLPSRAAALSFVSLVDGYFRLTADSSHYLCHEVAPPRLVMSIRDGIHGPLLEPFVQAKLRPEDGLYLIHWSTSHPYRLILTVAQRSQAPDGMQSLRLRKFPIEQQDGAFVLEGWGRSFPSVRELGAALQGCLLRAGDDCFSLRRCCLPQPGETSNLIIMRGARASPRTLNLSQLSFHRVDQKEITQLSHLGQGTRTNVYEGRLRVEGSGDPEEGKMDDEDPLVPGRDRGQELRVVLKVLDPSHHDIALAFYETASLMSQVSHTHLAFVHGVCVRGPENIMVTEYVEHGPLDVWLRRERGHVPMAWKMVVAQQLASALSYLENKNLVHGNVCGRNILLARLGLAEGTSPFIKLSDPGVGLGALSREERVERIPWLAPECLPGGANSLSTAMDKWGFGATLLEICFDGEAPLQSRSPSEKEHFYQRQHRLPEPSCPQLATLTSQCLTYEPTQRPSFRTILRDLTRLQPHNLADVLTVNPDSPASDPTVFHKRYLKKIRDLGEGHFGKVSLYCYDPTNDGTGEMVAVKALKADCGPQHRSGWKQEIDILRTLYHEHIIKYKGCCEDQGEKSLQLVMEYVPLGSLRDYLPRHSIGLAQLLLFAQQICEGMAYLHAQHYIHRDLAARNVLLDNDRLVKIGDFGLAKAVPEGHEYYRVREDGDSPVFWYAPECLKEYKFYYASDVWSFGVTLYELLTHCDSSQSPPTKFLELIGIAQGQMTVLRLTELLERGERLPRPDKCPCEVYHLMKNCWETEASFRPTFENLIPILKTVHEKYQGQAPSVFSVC

[12] = target: Sodium-dependent noradrenaline transporter (Homo sapiens) (UniProt P23975); assay: NETRANS/H Eurofins-Panlabs selectivity data (BI); settings: Compound concentration 10.0 uM
[13] = test system: Mast/stem cell growth factor receptor Kit (Homo sapiens), P10721 [L576P]; settings: Compound concentration 1000.0 nM
Mast/stem cell growth factor receptor Kit (Homo sapiens), P10721 [L576P], sequence (P10721 whole entry L576P): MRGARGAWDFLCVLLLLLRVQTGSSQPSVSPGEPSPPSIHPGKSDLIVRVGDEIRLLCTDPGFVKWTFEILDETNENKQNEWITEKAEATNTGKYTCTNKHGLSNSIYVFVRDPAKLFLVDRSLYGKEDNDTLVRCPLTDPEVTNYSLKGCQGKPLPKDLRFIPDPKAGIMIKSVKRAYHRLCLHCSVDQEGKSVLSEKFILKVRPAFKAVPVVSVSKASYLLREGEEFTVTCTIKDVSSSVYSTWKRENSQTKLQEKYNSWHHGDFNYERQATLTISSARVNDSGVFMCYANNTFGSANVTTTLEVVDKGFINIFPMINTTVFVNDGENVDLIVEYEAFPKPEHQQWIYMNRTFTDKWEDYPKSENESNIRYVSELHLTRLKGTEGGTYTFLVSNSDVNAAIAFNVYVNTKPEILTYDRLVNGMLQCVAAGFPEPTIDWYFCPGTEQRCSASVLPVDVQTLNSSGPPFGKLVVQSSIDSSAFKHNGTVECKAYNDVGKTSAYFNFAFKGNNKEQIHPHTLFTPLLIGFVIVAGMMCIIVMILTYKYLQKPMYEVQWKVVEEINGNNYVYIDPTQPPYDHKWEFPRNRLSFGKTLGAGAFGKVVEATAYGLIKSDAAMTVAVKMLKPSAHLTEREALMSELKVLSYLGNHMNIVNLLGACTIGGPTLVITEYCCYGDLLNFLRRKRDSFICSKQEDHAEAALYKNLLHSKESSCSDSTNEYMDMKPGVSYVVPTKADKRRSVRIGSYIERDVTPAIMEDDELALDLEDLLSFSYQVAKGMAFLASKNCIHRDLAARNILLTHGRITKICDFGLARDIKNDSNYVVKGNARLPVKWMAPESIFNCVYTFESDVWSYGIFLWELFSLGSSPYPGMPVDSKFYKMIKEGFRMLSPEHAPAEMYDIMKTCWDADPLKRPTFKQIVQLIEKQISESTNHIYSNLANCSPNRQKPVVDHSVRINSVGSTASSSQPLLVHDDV

[14] = target: Tyrosine-protein kinase receptor Tie-1 (Homo sapiens) (UniProt P35590); settings: Compound concentration 1000.0 nM
[15] = target: Receptor tyrosine-protein kinase erbB-2 (Homo sapiens) (UniProt P04626); settings: Compound concentration 1000.0 nM
[16] = target: Endothelin-1 receptor (Homo sapiens) (UniProt P25101); assay: ETA/HU Eurofins-Panlabs selectivity data (BI); settings: Compound concentration 10.0 uM
[17] = target: ATP-sensitive inward rectifier potassium channel 1 isoform X1 (Mesocricetus auratus) (UniProt A0A1U8CU73); assay: K+/KATP/HA Eurofins-Panlabs selectivity data (BI); settings: Compound concentration 10.0 uM
[18] = target: Macrophage-stimulating protein receptor (Homo sapiens) (UniProt Q04912); settings: Compound concentration 1000.0 nM
Macrophage-stimulating protein receptor (Homo sapiens), sequence (Q04912 25-304 limits assumed): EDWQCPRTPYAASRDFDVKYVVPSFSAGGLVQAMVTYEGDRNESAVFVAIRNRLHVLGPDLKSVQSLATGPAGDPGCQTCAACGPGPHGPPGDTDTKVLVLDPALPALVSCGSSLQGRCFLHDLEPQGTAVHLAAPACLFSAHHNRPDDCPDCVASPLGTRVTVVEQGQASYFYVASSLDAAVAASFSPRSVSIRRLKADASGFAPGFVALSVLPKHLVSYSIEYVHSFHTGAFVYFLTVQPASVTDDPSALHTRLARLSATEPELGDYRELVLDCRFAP
Macrophage-stimulating protein receptor (Homo sapiens), sequence (Q04912 310-1400 limits assumed): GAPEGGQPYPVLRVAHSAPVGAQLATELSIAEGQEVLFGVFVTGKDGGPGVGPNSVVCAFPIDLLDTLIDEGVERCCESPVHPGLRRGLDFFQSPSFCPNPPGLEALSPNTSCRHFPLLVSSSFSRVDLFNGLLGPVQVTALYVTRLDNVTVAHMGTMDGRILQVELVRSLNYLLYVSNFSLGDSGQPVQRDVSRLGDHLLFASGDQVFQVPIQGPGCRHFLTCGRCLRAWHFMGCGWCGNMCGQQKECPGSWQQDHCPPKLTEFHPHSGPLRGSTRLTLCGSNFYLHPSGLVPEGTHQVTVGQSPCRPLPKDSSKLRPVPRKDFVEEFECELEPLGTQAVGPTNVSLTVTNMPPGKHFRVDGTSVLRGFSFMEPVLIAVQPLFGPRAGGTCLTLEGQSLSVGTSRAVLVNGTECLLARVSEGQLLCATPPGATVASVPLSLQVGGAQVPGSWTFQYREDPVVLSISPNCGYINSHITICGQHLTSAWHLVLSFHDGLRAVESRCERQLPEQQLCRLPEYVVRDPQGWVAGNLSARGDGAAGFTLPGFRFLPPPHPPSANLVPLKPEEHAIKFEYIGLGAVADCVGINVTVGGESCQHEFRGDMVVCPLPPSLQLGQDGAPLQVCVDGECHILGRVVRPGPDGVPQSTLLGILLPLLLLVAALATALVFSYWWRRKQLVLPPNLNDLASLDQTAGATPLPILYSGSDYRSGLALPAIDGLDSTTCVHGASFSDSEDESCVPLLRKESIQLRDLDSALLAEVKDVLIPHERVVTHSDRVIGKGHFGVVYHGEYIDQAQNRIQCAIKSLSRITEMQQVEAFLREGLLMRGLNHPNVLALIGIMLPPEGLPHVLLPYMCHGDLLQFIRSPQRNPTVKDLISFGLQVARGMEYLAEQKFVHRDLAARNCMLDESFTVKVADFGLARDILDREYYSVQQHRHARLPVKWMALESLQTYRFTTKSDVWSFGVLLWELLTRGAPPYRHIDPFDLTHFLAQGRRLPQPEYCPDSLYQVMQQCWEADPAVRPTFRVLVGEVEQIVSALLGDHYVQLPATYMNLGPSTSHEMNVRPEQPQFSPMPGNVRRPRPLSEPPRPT

[19] = target: Muscarinic acetylcholine receptor M3 (Homo sapiens) (UniProt P20309); settings: Compound concentration 10.0 uM
[20] = target: Cyclin-dependent kinase-like 5 (Homo sapiens) (UniProt O76039); settings: Compound concentration 1000.0 nM
[21] = target: Phosphatidylinositol 4,5-bisphosphate 3-kinase catalytic subunit beta isoform (Homo sapiens) (UniProt P42338); settings: Compound concentration 1000.0 nM
Phosphatidylinositol 4,5-bisphosphate 3-kinase catalytic subunit beta isoform (Homo sapiens), sequence (P42338 whole entry, looked up, the tested form may be a part, canonical isoform): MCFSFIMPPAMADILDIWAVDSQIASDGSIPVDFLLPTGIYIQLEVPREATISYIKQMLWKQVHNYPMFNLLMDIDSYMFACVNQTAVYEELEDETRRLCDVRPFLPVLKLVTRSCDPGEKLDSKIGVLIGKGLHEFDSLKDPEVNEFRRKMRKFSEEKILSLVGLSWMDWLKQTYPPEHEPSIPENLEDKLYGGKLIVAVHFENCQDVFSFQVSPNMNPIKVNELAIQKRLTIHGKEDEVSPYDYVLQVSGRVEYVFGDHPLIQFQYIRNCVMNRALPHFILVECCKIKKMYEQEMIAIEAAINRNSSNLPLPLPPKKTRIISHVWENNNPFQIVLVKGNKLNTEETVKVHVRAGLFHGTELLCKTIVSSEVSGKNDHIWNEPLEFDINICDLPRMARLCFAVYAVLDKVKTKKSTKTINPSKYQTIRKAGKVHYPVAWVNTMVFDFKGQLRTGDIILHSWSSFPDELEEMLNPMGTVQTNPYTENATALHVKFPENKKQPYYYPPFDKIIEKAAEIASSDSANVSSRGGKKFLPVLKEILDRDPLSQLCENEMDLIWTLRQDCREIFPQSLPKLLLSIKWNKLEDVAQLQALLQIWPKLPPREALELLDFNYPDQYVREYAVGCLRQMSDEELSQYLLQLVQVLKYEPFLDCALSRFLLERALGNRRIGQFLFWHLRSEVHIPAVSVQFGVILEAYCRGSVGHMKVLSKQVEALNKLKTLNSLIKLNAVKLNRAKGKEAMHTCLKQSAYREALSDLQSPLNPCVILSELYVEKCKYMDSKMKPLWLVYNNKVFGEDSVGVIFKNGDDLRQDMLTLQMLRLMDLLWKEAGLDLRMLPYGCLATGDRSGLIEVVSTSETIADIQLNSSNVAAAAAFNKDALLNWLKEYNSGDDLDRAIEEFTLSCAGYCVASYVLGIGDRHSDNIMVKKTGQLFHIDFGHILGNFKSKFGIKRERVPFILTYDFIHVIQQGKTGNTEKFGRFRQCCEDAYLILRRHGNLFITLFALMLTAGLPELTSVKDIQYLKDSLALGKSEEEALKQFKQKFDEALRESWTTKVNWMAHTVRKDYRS

[22] = target: Phosphatidylinositol 3-kinase C2 domain-containing subunit gamma (Homo sapiens) (UniProt O75747); settings: Compound concentration 1000.0 nM
[23] = target: Dual specificity mitogen-activated protein kinase kinase 3 (Homo sapiens) (UniProt P46734); settings: Compound concentration 1000.0 nM
[24] = target: Mitogen-activated protein kinase kinase kinase 9 (Homo sapiens) (UniProt P80192); settings: Compound concentration 1000.0 nM
[25] = target: Protein-tyrosine kinase 6 (Homo sapiens) (UniProt Q13882); settings: Compound concentration 1000.0 nM
[26] = target: Mitogen-activated protein kinase kinase kinase 15 (Homo sapiens) (UniProt Q6ZN16); settings: Compound concentration 1000.0 nM
[27] = target: Serine/threonine-protein kinase 26 (Homo sapiens) (UniProt Q9P289); settings: Compound concentration 1000.0 nM
[28] = target: Calpain-1 catalytic subunit (Homo sapiens) (UniProt P07384); assay: MU-CALPAIN Eurofins-Panlabs selectivity data (BI); settings: Compound concentration 10.0 uM
[29] = target: Rho-associated protein kinase 2 (Homo sapiens) (UniProt O75116); settings: Compound concentration 1000.0 nM
[30] = target: Phosphatidylinositol 4-phosphate 5-kinase type-1 alpha (Homo sapiens) (UniProt Q99755); settings: Compound concentration 1000.0 nM
[31] = target: Rhodopsin kinase GRK1 (Homo sapiens) (UniProt Q15835); settings: Compound concentration 1000.0 nM
[32] = target: Fibroblast growth factor receptor 4 (Homo sapiens) (UniProt P22455); settings: Compound concentration 1000.0 nM
[33] = target: G protein-coupled receptor kinase 3 (Homo sapiens) (UniProt P35626); settings: Compound concentration 1000.0 nM
[34] = target: Mitogen-activated protein kinase kinase kinase 2 (Homo sapiens) (UniProt Q9Y2U5); settings: Compound concentration 1000.0 nM
[35] = target: Bone morphogenetic protein receptor type-1A (Homo sapiens) (UniProt P36894); settings: Compound concentration 1000.0 nM
[36] = test system: Epidermal growth factor receptor (Homo sapiens), P00533 [L858R]; settings: Compound concentration 1000.0 nM
[37] = target: Serine/threonine-protein kinase ULK2 (Homo sapiens) (UniProt Q8IYT8); settings: Compound concentration 1000.0 nM
[38] = target: Receptor-interacting serine/threonine-protein kinase 4 (Homo sapiens) (UniProt P57078); settings: Compound concentration 1000.0 nM
[39] = target: Death-associated protein kinase 3 (Homo sapiens) (UniProt O43293); settings: Compound concentration 1000.0 nM

Death-associated protein kinase 2 (Homo sapiens), sequence (Q9UIK4 whole entry, looked up): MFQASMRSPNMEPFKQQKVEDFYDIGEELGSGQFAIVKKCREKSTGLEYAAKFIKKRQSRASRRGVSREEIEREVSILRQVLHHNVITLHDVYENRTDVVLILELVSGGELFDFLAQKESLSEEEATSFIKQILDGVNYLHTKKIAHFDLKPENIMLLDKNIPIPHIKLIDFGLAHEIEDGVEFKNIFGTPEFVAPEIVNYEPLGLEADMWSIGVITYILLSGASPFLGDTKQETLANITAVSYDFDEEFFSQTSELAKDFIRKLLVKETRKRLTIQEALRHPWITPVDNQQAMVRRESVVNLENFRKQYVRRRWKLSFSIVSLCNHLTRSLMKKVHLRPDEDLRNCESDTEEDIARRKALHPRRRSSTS

CCOCCn1cc(C(=O)Nc2ccc(-n3nc(-c4cccnc4)cc3C(F)(F)F)cn2)ccc1=O [BI 1935]
inactive: residual activity [1] 93% | residual activity [2] 83% | residual activity [3] 83% | residual activity [4] 98% | residual activity [5] 100% | residual activity [6] 100% | residual activity [7] 100% | residual activity [8] 87% | residual activity [9] 106% | inhibition [10] 2.27% | residual activity [11] 100% | residual activity [12] 97% | residual activity [13] 94% | residual activity [14] 81% | residual activity [15] 100% | residual activity [16] 97% | residual activity [17] 92% | residual activity [18] 100% | inhibition [19] 10.2% | residual activity [20] 90% | residual activity [21] 82% | residual activity [22] 85% | residual activity [23] 83% | residual activity [24] 93% | residual activity [25] 100% | residual activity [26] 100% | residual activity [27] 81% | residual activity [28] 96% | residual activity [29] 88% | residual activity [30] 100% | residual activity [31] 74% | residual activity [32] 100% | residual activity [33] 76% | residual activity [34] 94% | residual activity [35] 70% | residual activity [36] 90% | residual activity [37] 74% | residual activity [38] 81% | residual activity [39] 91%
